Results from ChEMBL document CHEMBL4706479, “Novel Aryloxyethyl Derivatives of 1-(1-Benzoylpiperidin-4-yl)methanamine as the Extracellular Regulated Kinases 1/2 (ERK1/2) Phosphorylation-Preferring Serotonin 5-HT Receptor-Biased Agonists with Robust Antidepressant-like Activity” (J Med Chem, 2019).
Converted amounts (≈) assume the structure as drawn. The source made the active and inactive calls. The calls are words filed in the database; no cut-off is given here.

Legend:
[1] = target: Neuronal acetylcholine receptor; alpha4/beta2 (Homo sapiens) (UniProt P17787+P43681); assay: Inhibition of nicotinic acetylcholine receptor alpha4beta2 (unknown origin) at 10 uM relative to control; type: protein-complex assay
Rattus norvegicus [2] = assay: Antidepressant-like activity in Wistar rat assessed as reduction in immobility time at 0.04 to […], po administered 60 mins prior to testing and measured for 5 mins test period in presence of 5-HT1A antagonist WAY100635 by Porsolt-forced swim test; type: functional, organism-based; settings: dose lower 0.04 mg/kg, dose upper […], time 65.0 min
in vitro = settings: human, Caco-2, pH 6.5
[3] = target: Alpha-1A adrenergic receptor (Homo sapiens) (UniProt P35348); assay: Inhibition of adrenergic alpha-1A receptor (unknown origin) at 10 uM relative to control
[4] = target: Muscarinic acetylcholine receptor M3 (Homo sapiens) (UniProt P20309); assay: Inhibition of muscarinic M3 receptor (unknown origin) at 10 uM relative to control
[5] = target: Histamine H1 receptor (Homo sapiens) (UniProt P35367); assay: Displacement of [3H]-pyrilamine from human recombinant histamine H1 receptor stably expressed in CHO-K1 cell membranes at 1 uM measured after 60 mins by microbeta2 scintillation counting analysis relative to control; settings: Cell membrane
Rattus norvegicus [6] = assay: Antidepressant-like activity in Wistar rat assessed as minimum effective dose causing reduction in immobility time after oral administration with compound 60 mins prior to testing and measured for 5 mins test period by Porsolt-forced swim test; type: functional; settings: 1.083 h, time 65 min, read-out: MED
[7] = target: Cannabinoid receptor 2 (Homo sapiens) (UniProt P34972); assay: Inhibition of cannabinoid receptor 2 (unknown origin) at 10 uM relative to control
D(2) dopamine receptor = D(2) dopamine receptor (Homo sapiens, UniProt P14416); assay: Inhibition of dopamine D2S receptor (unknown origin) at 10 uM relative to control
CYP3A4 = CYP3A4 (Homo sapiens, UniProt P08684); assay: Inhibition of human recombinant CYP3A4 at 10 uM relative to control; type: ADME
[8] = target: Alpha-1A adrenergic receptor (Homo sapiens) (UniProt P35348); assay: Inhibition of adrenergic alpha-1A receptor (unknown origin) at 1 uM relative to control
[9] = target: Sodium-dependent dopamine transporter (Homo sapiens) (UniProt Q01959); assay: Inhibition of dopamine transporter (unknown origin) at 10 uM relative to control
[10] = target: D(1A) dopamine receptor (Homo sapiens) (UniProt P21728); assay: Inhibition of dopamine D1 receptor (unknown origin) at 10 uM relative to control
[11] = target: Beta-2 adrenergic receptor (Homo sapiens) (UniProt P07550); assay: Inhibition of adrenergic beta2 receptor (unknown origin) at 10 uM relative to control
[12] = Aqueous solubility of compound in simulated gastric fluid at 200 uM; type: physicochemical
Homo sapiens = species: Homo sapiens; assay: Inhibition of sodium channel site2 (unknown origin) at 10 uM relative to control
[13] = Cmax in Wistar rat brain at […], po measured after 60 mins by HPLC analysis; type: ADME, organism-based; set-up: route oral, dose 2.5 mg/kg, time 60 min
[14] = target: Sodium-dependent noradrenaline transporter (Homo sapiens) (UniProt P23975); assay: Inhibition of norepinephrine transporter (unknown origin) at 10 uM relative to control
Rattus norvegicus [15] = assay: Antidepressant-like activity in Wistar rat assessed as reduction in immobility time at […], po administered 15 mins prior to testing and measured for 5 mins test period by Porsolt-forced swim test; type: functional, organism-based; settings: time 20.0 min
[16] = target: Muscarinic acetylcholine receptor M2 (Homo sapiens) (UniProt P08172); assay: Inhibition of muscarinic M2 receptor (unknown origin) at 10 uM relative to control
Rattus norvegicus [17] = assay: In vivo biased agonist activity at 5-HT1A receptor in rat prefrontal brain cortex assessed as increase in ERK1/2 phosphorylation levels at […], po administered as single dose measured after 30 mins by Alphalisa assay; type: functional, organism-based
[18] = target: Muscarinic acetylcholine receptor M1 (Homo sapiens) (UniProt P11229); assay: Displacement of [3H]-scopolamine from human recombinant muscarinic M1 receptor stably expressed in CHO-K1 cell membranes at 1 uM measured after 120 mins by microbeta2 scintillation counting analysis relative to control; settings: Cell membrane
[19] = Apparent volume of distribution during terminal phase in Wistar rat at […], po measured after 60 mins by HPLC analysis; type: ADME, organism-based; settings: in vivo, dose 2.5 mg/kg, read-out: Vz/F
hERG (KCNH2) = hERG (KCNH2) (Homo sapiens, UniProt Q12809); assay: Inhibition of human ERG at 0.1 uM by patch clamp technique relative to control
[20] = target: Adenosine receptor A2a (Homo sapiens) (UniProt P29274); assay: Inhibition of adenosine receptor A2A (unknown origin) at 10 uM relative to control
[21] = target: 5-hydroxytryptamine receptor 6 (Homo sapiens) (UniProt P50406); assay: Inhibition of 5-HT6 (unknown origin) at 1 uM relative to control
Rattus norvegicus [22] = assay: Antidepressant-like activity in Wistar rat assessed as minimum effective dose causing reduction in immobility time after oral administration with compound 15 mins prior to testing and measured for 5 mins test period by Porsolt-forced swim test; type: functional; settings: 20 min, read-out: MED
[23] = target: Alpha-1B adrenergic receptor (Homo sapiens) (UniProt P35368); assay: Inhibition of adrenergic alpha-1B receptor (unknown origin) at 1 uM relative to control
[24] = target: Cannabinoid receptor 1 (Homo sapiens) (UniProt P21554); assay: Inhibition of cannabinoid receptor 1 (unknown origin) at 10 uM relative to control

Chain of Alpha-1A adrenergic receptor (Homo sapiens) (P35348 whole entry): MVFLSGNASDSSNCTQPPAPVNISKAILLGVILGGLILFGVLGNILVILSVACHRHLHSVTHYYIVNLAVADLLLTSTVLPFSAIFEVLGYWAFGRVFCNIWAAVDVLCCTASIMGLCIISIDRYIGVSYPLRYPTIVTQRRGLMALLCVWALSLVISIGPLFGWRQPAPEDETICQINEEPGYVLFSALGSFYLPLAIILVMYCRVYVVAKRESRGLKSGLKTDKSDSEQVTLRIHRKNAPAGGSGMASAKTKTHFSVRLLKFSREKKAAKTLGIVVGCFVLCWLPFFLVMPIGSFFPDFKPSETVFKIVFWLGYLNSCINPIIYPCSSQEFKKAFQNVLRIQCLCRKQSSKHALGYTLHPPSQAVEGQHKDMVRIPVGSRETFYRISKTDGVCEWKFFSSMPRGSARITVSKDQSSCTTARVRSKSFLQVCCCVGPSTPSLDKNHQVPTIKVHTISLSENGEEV
Chain of Sodium-dependent dopamine transporter (Homo sapiens) (Q01959 whole entry): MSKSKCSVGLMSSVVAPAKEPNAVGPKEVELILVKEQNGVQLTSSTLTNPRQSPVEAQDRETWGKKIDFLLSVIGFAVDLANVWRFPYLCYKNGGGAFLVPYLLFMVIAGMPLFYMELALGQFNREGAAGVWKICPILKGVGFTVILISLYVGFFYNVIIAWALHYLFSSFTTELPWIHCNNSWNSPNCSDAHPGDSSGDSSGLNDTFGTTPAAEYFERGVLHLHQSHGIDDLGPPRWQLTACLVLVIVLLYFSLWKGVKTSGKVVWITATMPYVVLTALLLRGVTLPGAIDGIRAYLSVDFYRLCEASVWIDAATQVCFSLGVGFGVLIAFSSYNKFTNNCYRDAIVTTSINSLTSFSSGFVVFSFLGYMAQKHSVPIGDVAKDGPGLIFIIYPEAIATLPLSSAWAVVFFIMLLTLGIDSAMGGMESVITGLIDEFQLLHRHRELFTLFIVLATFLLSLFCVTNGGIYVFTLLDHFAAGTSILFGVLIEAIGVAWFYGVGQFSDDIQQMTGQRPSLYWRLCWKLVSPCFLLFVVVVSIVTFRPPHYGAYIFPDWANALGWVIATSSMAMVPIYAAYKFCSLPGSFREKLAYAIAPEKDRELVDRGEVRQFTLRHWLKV
Chain of Muscarinic acetylcholine receptor M1 (Homo sapiens) (P11229 whole entry): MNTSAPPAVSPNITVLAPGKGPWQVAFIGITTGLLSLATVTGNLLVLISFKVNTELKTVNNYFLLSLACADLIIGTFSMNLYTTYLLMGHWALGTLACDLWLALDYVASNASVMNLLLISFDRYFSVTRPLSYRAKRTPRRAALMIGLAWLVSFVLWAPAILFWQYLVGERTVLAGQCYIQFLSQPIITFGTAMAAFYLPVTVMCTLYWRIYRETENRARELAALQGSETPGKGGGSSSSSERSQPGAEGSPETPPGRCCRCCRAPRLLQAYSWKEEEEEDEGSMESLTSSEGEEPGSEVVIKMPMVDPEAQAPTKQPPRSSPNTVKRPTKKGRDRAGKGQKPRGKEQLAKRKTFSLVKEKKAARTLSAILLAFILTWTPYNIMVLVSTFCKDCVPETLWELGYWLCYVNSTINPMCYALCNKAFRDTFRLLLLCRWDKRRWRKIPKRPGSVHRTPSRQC
Chain of Muscarinic acetylcholine receptor M2 (Homo sapiens) (P08172 whole entry): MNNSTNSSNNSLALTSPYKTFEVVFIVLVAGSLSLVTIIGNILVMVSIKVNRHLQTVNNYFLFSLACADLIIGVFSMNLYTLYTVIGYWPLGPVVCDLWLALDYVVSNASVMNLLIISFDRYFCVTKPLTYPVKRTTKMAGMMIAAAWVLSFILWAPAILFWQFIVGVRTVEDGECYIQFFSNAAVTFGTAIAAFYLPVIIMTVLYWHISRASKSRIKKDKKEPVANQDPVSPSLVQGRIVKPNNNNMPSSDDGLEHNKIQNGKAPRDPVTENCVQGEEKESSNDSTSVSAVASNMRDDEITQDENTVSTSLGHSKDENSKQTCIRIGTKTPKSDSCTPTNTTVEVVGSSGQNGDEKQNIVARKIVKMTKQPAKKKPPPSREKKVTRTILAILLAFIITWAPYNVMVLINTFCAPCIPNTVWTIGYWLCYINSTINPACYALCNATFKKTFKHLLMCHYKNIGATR
Chain of D(2) dopamine receptor (P14416 whole entry): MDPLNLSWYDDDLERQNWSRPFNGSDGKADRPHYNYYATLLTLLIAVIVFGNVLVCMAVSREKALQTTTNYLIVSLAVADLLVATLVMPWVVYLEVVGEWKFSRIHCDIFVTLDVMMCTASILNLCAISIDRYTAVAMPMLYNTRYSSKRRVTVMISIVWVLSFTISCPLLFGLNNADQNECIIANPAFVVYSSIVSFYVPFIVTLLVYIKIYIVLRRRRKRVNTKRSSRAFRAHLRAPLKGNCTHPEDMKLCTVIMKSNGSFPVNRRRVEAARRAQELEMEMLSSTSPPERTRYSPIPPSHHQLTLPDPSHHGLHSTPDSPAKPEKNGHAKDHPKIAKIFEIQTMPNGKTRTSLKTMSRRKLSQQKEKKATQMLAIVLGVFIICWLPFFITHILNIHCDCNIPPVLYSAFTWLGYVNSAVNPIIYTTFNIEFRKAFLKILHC
Chain of Cannabinoid receptor 2 (Homo sapiens) (P34972 whole entry): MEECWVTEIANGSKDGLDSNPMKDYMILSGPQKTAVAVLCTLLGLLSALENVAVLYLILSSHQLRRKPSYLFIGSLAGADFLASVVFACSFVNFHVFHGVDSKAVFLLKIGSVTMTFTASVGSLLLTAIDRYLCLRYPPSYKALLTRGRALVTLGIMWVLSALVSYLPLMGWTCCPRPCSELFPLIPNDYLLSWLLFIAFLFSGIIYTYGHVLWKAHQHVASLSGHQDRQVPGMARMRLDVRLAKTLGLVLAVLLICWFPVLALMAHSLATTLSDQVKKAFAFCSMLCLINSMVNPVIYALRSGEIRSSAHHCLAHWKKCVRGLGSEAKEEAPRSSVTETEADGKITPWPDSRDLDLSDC
Chain of Beta-2 adrenergic receptor (Homo sapiens) (P07550 whole entry, looked up): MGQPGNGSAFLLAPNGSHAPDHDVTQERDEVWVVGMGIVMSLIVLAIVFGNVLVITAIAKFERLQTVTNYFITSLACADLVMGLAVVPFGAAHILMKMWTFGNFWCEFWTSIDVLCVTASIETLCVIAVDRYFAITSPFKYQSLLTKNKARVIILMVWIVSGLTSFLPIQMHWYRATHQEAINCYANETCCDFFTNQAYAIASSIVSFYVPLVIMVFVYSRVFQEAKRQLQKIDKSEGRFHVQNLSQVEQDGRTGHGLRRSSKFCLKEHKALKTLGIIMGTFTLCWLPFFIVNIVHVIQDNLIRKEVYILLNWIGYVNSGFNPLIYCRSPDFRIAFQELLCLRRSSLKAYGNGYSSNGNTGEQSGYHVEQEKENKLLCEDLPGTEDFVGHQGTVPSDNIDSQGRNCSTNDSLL
Chain of 5-hydroxytryptamine receptor 6 (Homo sapiens) (P50406 whole entry): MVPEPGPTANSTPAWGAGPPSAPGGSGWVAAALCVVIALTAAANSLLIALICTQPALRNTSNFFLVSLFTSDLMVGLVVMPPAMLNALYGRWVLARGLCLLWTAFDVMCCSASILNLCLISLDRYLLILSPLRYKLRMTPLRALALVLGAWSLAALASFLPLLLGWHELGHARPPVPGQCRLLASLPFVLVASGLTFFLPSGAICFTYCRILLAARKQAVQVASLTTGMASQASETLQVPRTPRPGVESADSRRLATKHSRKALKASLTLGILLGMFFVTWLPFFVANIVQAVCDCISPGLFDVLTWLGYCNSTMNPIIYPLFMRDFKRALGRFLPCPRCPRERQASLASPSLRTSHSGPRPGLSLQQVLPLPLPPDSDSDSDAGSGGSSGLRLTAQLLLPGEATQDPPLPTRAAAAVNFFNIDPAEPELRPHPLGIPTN
Chain of Adenosine receptor A2a (Homo sapiens) (P29274 whole entry): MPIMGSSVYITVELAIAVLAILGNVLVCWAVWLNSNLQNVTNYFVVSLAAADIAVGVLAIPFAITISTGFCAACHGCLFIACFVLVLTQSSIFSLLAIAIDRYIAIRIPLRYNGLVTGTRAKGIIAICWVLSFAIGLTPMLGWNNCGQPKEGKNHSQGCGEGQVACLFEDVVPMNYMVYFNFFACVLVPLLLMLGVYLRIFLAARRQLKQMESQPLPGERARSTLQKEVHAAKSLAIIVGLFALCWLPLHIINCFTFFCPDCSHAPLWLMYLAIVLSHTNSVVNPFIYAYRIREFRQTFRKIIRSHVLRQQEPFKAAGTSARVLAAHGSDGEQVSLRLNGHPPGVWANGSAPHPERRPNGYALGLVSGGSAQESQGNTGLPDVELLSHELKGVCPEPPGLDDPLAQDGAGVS
Chain of CYP3A4 (P08684 whole entry): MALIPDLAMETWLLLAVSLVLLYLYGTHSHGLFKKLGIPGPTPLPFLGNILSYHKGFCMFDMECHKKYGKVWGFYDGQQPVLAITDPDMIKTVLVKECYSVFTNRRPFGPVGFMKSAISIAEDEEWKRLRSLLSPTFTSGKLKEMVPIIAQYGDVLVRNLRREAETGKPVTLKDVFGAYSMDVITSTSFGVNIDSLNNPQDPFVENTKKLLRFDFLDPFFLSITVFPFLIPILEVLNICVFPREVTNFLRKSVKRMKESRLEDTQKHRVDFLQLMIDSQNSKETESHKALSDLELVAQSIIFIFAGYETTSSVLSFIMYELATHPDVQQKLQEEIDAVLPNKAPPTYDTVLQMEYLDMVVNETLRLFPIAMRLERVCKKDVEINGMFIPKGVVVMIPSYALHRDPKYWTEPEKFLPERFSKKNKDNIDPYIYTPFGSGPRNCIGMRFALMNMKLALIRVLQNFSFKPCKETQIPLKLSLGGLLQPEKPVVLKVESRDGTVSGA

O=C(c1ccc(F)c(Cl)c1)N1CCC(F)(CNCCOc2ccccn2)CC1
inhibition [1]: -5.4% | Activity (Rattus norvegicus [2]): inactive | Papp A→B (in vitro): 25.9 ×10⁻⁶ cm/s | inhibition [3]: 99.7% | inhibition [4]: 9.7% | Activity [5]: < 50% | minimal effective dose (Rattus norvegicus [6]): 0.16 mg/kg | inhibition [7]: -3.1% | inhibition (D(2) dopamine receptor): 91.3% | inhibition at 10 µM (CYP3A4): 23.2% | inhibition [8]: 87.6% | inhibition [9]: 20.4% | inhibition [10]: 38.2% | inhibition [11]: 3.8% | solubility at 200 µM [12]: 200 µM (≈ 82 µg/mL) | inhibition (Homo sapiens): 48.8% | Cmax at 1 h [13]: 124 ng/mL | inhibition [14]: -2% | Activity (Rattus norvegicus [15]): Active | inhibition [16]: 6.3% | Activity (Rattus norvegicus [17]): Active | Activity [18]: < 50% | Vd/F at 1 h [19]: 35.9 L/kg | inhibition at 0.1 µM (hERG (KCNH2)): 0.1% | inhibition [20]: 11.8% | inhibition [21]: 12.1% | minimal effective dose (Rattus norvegicus [22]): 0.16 mg/kg | inhibition [23]: 32.2% | inhibition [24]: 0.4%
